Here are results for 2 molecules from patent US9428506B2, “Substituted pyrido[3′,4′:4,5]pyrrolo[1,2,3-de]quinoxalines for the treatment of nervous system disorders” (INTRA-CELLULAR THERAPIES, INC., priority 2012, dated 2016).

One experiment addresses D2 (Homo sapiens, UniProt P14416). Briefly: Receptor binding activity, D2. The following applies: binding to D2, methods of WO/2009/145900. Here is the method:
(§1) Binding to 5HT2A, D2 and SERT is assessed, using the methods described in WO/2009/145900. The compounds of Examples 1 and 2 are found to have potent binding to 5-HT2A, SERT and D2, with affinity constants in the sub-micromolar range: […]

In the next experiment the target is 5-HT2A (Homo sapiens, UniProt P28223). Briefly: Receptor binding activity, 5-HT2A. The conditions noted are these: binding to 5-HT2A, methods of WO/2009/145900. On the procedure: as §1
Chain of 5-HT2A (P28223 whole entry, species assumed): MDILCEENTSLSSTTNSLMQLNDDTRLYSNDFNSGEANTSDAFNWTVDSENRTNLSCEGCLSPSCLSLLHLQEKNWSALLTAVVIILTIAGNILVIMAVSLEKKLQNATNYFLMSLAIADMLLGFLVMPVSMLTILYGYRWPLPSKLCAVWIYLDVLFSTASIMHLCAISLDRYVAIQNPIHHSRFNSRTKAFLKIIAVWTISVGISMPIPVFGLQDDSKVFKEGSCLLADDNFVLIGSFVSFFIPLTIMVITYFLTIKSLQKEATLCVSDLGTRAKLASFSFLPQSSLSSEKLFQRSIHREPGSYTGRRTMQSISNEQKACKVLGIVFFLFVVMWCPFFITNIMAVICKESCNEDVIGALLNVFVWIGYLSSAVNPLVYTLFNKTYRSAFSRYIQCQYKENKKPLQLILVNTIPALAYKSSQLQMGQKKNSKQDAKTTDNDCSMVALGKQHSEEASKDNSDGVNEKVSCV
The next experiment has as its target SERT (Homo sapiens, UniProt P31645). The experiment can be described thus: Receptor binding activity, SERT. The conditions noted are these: binding to SERT, methods of WO/2009/145900. Here is the method:
as §1

Chain of SERT (P31645 whole entry, species assumed): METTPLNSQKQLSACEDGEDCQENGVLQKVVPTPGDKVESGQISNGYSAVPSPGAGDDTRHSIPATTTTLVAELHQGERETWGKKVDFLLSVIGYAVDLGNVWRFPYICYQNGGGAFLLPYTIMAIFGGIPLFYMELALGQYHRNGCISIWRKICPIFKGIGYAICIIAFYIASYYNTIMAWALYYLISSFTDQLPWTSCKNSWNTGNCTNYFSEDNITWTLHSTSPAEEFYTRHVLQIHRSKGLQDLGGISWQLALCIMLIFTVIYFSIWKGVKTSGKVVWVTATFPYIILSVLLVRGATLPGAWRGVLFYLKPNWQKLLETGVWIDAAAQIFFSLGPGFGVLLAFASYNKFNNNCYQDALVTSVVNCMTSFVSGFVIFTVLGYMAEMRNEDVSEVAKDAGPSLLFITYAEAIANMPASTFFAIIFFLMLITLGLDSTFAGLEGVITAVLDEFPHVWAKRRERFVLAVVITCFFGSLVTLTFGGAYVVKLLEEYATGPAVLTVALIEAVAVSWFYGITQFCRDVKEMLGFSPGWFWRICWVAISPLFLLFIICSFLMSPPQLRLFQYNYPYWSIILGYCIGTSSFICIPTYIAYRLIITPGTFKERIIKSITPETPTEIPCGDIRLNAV
Chain of D2 (P14416 whole entry): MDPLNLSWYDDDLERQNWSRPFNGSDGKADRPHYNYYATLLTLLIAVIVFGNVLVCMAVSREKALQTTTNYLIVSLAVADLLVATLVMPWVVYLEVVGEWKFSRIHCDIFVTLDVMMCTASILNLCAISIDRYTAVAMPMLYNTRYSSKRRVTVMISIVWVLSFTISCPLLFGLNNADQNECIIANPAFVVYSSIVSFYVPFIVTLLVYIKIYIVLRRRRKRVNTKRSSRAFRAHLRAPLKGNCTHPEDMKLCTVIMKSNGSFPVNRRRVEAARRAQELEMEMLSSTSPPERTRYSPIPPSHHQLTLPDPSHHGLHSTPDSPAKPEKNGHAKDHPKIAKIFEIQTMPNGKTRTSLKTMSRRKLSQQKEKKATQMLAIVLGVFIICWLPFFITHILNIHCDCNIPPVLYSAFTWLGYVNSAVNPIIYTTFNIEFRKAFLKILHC

The term Ki denotes the equilibrium dissociation constant of an inhibitor or competing ligand from its target. A higher Ki goes with lower affinity. Turning to `COC(CCCN1CC[C@H]2[C@@H](C1)c1cccc3c1N2CCN3C)c1ccc(F)cc1` (stereo partly drawn) [Ex. 2, (6bR,10aS)-8-[4-(4-Fluoro-phenyl)-4-methoxy-butyl]-3-methyl-2,3,6b,7,8,9,10,10a-octahydro-1H-pyrido[3′,4′:4,5]pyrrolo[1,2,3-de]quinoxaline], the results for the Ki at D2, at 5-HT2A and at SERT were 810 nM, 96 nM and 300 nM, respectively.

On to `CN1CCN2c3c(cccc31)[C@@H]1CN(CCCC(C)(O)c3ccc(F)cc3)CC[C@@H]12` (stereo partly drawn) [Ex. 1, 2-(4-Fluoro-phenyl)-5-((6bR,10aS)-3-methyl-2,3,6b,9,10,10a-hexahydro-1H,7H-pyrido[3′,4′:4,5]pyrrolo[1,2,3-de]quinoxalin-8-yl)-pentan-2-ol], for which the Ki at D2 worked out at 740 nM; at 5-HT2A, 350 nM; at SERT, 520 nM.
